Source: PMC6522510 (Nature Communications, 2019)

How the values were obtained:
MV4-11 [1] = experiment: Secondary dose-response HTS, Cell Titer Glo; format: cell-based, human; conditions: MV4-11; for EC50: Homo sapiens
CHRF288-11 [2] = experiment: Secondary dose-response HTS, Cell Titer Glo; format: cell-based, human; conditions: for EC50: Homo sapiens
CMK [3] = experiment: Secondary dose-response HTS, Cell Titer Glo; format: cell-based, human; conditions: CMK; for EC50: Homo sapiens
CMS [4] = experiment: Secondary dose-response HTS, Cell Titer Glo; format: cell-based, human; conditions: for EC50: Homo sapiens, HTS
ML2 = experiment: Secondary dose-response HTS, Cell Titer Glo; format: cell-based, human; conditions: secondary high-throughput screen, ML-2; for EC50: Homo sapiens, read-out: average effective concentration, ML-2
U937 [5] = experiment: Secondary dose-response HTS, Cell Titer Glo; format: cell-based, human; conditions: for EC50: Homo sapiens, U-937
CMK [6] = experiment: cells; set-up: species or system AML cell lines (8); Secondary HTS, 10-point dose-response in triplicate, Cell Titer Glo viability, four-parameter fit EC50; conditions: Homo sapiens, CMK, 72 h, read-out: CMK
MOLM-13 [7] = experiment: Secondary dose-response HTS, Cell Titer Glo; format: cell-based, human; conditions: MOLM-13
MV4-11 [8] = experiment: cells; set-up: species or system AML cell lines (8); Secondary HTS, 10-point dose-response in triplicate, Cell Titer Glo viability, four-parameter fit EC50; conditions: Homo sapiens, MV4-11, 72 h, read-out: MV4-11
M07e = experiment: cells; set-up: species or system AML cell lines (8); Secondary HTS, 10-point dose-response in triplicate, Cell Titer Glo viability, four-parameter fit EC50; conditions: M-07e, 72 h, read-out: M07e
U937 [9] = experiment: cells; set-up: species or system AML cell lines (8); Secondary HTS, 10-point dose-response in triplicate, Cell Titer Glo viability, four-parameter fit EC50; conditions: Homo sapiens, U-937, 72 h, read-out: U937
CMS [10] = experiment: cells; set-up: species or system AML cell lines (8); Secondary HTS, 10-point dose-response in triplicate, Cell Titer Glo viability, four-parameter fit EC50; conditions: 72 h, read-out: CMS
CHRF288-11 [11] = experiment: cells; set-up: species or system AML cell lines (8); Secondary HTS, 10-point dose-response in triplicate, Cell Titer Glo viability, four-parameter fit EC50; conditions: 72 h, read-out: CHRF288-11
MOLM-13 [12] = experiment: cells; set-up: species or system AML cell lines (8); Secondary HTS, 10-point dose-response in triplicate, Cell Titer Glo viability, four-parameter fit EC50; conditions: Homo sapiens, MOLM-13, 72 h, read-out: MOLM-13
[13] = secondary high-throughput screen
[14] = secondary high-throughput screen, CHRF288-11
[15] = secondary high-throughput screen, CMS
[16] = secondary high-throughput screen, U937
[17] = Homo sapiens, secondary high-throughput screen, read-out: average effective concentration, MOLM-13
[18] = secondary high-throughput screen, read-out: average effective concentration, MV4-11
[19] = HTS, secondary high-throughput screen, CHRF288-11, read-out: average effective concentration, CHRF288-11
[20] = read-out: average effective concentration, CMK
[21] = secondary high-throughput screen, U937, read-out: average effective concentration, U937

Compound	average effective concentration, MV4-11 (MV4-11 [1]; [13])	average effective concentration, CMS (CMS [4]; [15])	average effective concentration, U937 (U937 [5]; [16])	EC50 (CMK [6]) [µM]	EC50 (MV4-11 [8]) [µM]	EC50 (M07e) [µM]	EC50 (U937 [9]) [µM]	EC50 (CMS [10]) [µM]	EC50 (ML2) [µM]	EC50 (CHRF288-11 [11]) [µM]	EC50 (MOLM-13 [12]) [µM]	further results
Cc1ccc(C(=O)Nc2ccc(Oc3cc4cnn(C)c4cc3-c3cn[nH]c3)c(F)c2)c(=O)n1-c1ccc(F)cc1 [LY2801653]	Inactive	Inactive	Inactive	–	–	–	–	–	–	–	–	average effective concentration, CHRF288-11 (CHRF288-11 [2]; [14]): Inactive; average effective concentration, CMK (CMK [3]; [13]): Inactive; average effective concentration, ML-2 (ML2): Inactive
O=c1oc2c(O)c(O)cc3c(=O)oc4c(O)c(O)cc1c4c23 [ELLAGIC ACID]	–	–	–	> 10	> 10	> 10	> 10	> 10	0.51	> 10	–	EC50 (MOLM-13 [7]; [17]): 0.8 µM
O=C1c2c(O)ccc(O)c2C(=O)c2c(NCCNCCO)ccc(NCCNCCO)c21 [SJ000285321, MITOXANTHRONE]	–	–	–	0.043	–	0.033	0.026	0.085	–	0.024	0.0081	–
BLEOMYCIN	Inactive	Inactive	Inactive	–	–	–	–	–	–	–	–	EC50 (MOLM-13 [7]; secondary high-throughput screen, read-out: average effective concentration, MOLM-13): 6.9 µM; average effective concentration, CMK (CMK [3]; [13]): Inactive
Cn1cc(CNCC2CCN(c3ncc(C(=O)NO)cn3)CC2)c2ccccc21 [Quisinostat, reference compound]	–	–	–	–	–	–	–	–	–	–	–	EC50 (MV4-11 [1]; secondary HTS, 72 h, average of triplicate, read-out: EC50 MV4-11): 0.01 µM; EC50 (MV4-11 [1]; [18]): 0.006 µM; EC50 (MOLM-13 [7]; Homo sapiens, secondary HTS, 72 h, average of triplicate, read-out: EC50 MOLM-13): 0.01 µM; EC50 (MOLM-13 [7]; [17]): 0.011 µM; EC50 (CHRF288-11 [2]; [19]): 0.009 µM; EC50 (CHRF288-11 [2]; secondary HTS, 72 h, average of triplicate, read-out: EC50 CHRF288-11): 0.01 µM; EC50 (CMK [3]; 72 h, read-out: EC50 CMK): 0.02 µM; EC50 (CMK [3]; [20]): 0.018 µM; EC50 (CMS [4]; 72 h, read-out: EC50 CMS): 0.001 µM; EC50 (U937 [5]; secondary HTS, 72 h, average of triplicate, read-out: EC50 U937): 0.01 µM
CC1CS(=O)(=O)CCN1/N=C/c1ccc([N+](=O)[O-])o1 (stereo not shown) [NIFURTIMOX]	–	–	–	–	–	–	–	–	8.5	–	–	EC50 (CMK [3]; secondary high-throughput screen, read-out: average effective concentration, CMK): 2.3 µM; EC50 (CMS [4]; secondary high-throughput screen, CMS, read-out: average effective concentration, CMS): 5 µM; EC50 (U937 [5]; [21]): 2.7 µM
Nc1nccc2c1ncn2C1C=C(CO)C(O)C1O (stereo not shown) [Compound 3-DEAZANEPLANOCIN]	Inactive	Inactive	Inactive	–	–	–	–	–	–	–	–	average effective concentration, ML-2 (ML2): Inactive
O=C(O)CC([S-])C(=O)O.[Au+] (stereo not shown) [AUROTHIOMALATE]	Inactive	Inactive	Inactive	–	–	–	–	–	–	–	–	average effective concentration, MOLM-13 (MOLM-13 [7]; [13]): Inactive; average effective concentration, CHRF288-11 (CHRF288-11 [2]; [14]): Inactive; average effective concentration, CMK (CMK [3]; [13]): Inactive
Cc1noc(-c2ccc(-c3ccc(CC(=O)O)cc3)cc2)c1NC(=O)O[C@H](C)c1ccccc1 [AM-095]	Inactive	Inactive	Inactive	–	–	–	–	–	–	–	–	average effective concentration, CHRF288-11 (CHRF288-11 [2]; [14]): Inactive; average effective concentration, CMK (CMK [3]; [13]): Inactive; average effective concentration, ML-2 (ML2): Inactive
CCOc1cc(C(C)(C)C)ccc1C1=N[C@@](C)(c2ccc(Cl)cc2)[C@@](C)(c2ccc(Cl)cc2)N1C(=O)N1CCN(CCCS(C)(=O)=O)CC1 [RG7112]	–	–	–	> 10	–	–	> 10	> 10	–	> 10	–	–
CN[C@@H](C)C(=O)N[C@H]1CN(C(=O)CC(C)C)CC[C@H]2CC[C@@H](C(=O)NC(c3ccccc3)c3ccccc3)N2C1=O [AT-406]	–	–	–	> 10	–	> 10	> 10	> 10	6.6	> 10	> 10	EC50 (MV4-11 [1]; [18]): 0.001 µM
Oc1nc(-c2ccc(C(F)(F)F)cc2)nc2c1CSCC2 [XAV939]	–	–	–	> 10	> 10	> 10	> 10	> 10	2.8	> 10	> 10	–
C/C1=C\CC(C)(C)/C=C/C(=O)/C(C)=C/CC1 [ZERUMBONE]	–	–	–	–	> 10	> 10	–	–	6.9	–	–	EC50 (MOLM-13 [7]; [17]): 10 µM; EC50 (CHRF288-11 [2]; [19]): 8.6 µM; EC50 (CMK [3]; [20]): 7.2 µM; EC50 (CMS [4]; read-out: average effective concentration, CMS): 7.3 µM; EC50 (U937 [5]; [21]): 10 µM
Cc1nc(Nc2ncc(C(=O)Nc3c(C)cccc3Cl)s2)cc(N2CCN(CCO)CC2)n1 [DASATINIB]	–	–	–	> 10	> 10	> 10	> 10	> 10	> 10	–	> 10	EC50 (CHRF288-11 [2]; [19]): 8.4 µM
O=C(O)c1ccc2c(c1)nc(Nc1cccc(Cl)c1)c1ccncc12 [SILMITASERTIB]	–	–	–	> 10	> 10	> 10	> 10	> 10	> 10	> 10	–	EC50 (MOLM-13 [7]; [17]): > 10 µM
CON(C)C(=O)N1N=C(c2cc(F)ccc2F)S[C@@]1(CCCN)c1ccccc1 [ARRY-520]	–	–	–	> 10	> 10	–	–	–	–	–	> 10	–
Nc1nc2[nH]cc(CCc3ccc(C(=O)N[C@@H](CCC(=O)O)C(=O)O)cc3)c2c(=O)[nH]1 [PEMETREXED]	–	–	–	> 10	–	> 10	> 10	> 10	0.066	–	–	EC50 (MV4-11 [1]; [18]): 0.035 µM; EC50 (MOLM-13 [7]; [17]): 0.048 µM; EC50 (CHRF288-11 [2]; [19]): 0.1 µM
Nc1nc(=O)n([C@H]2C[C@H](O)[C@@H](CO)O2)cc1F [Compound 5-FLUORODEOXYCYTIDINE]	Inactive	Inactive	Inactive	–	–	–	–	–	–	–	–	–
O=C(c1cc(Cc2n[nH]c(=O)c3ccccc23)ccc1F)N1CCN(C(=O)C2CC2)CC1 [OLAPARIB]	–	–	–	> 10	> 10	> 10	> 10	> 10	> 10	–	> 10	EC50 (CHRF288-11 [2]; [19]): > 10 µM
